Our source for the TGI values is PubChem BioAssay (NCI).

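1) Cells in 96-well plates. 2) Compound, 48 h, 5 concentrations. 3) Linear interpolation between surrounding doses. 4) Unreached endpoint = highest concentration. TGI denotes the concentration required for complete inhibition of growth.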 Where a SMILES comes first, the peptide text is derived from it. The star is where a group is joined. Cbz = O=C(OCc1ccccc1)*

Test systems include A549 NSCLC; CAKI-1 renal; IGROV1 ovarian; KM12 colon; NCI-H23 lung; OVCAR-3 ovarian; OVCAR-8 ovarian; PC-3 prostate; RPMI-8226 leukemia; RXF 393 renal; SF-295 CNS; SK-MEL-5 melanoma; SR leukemia; UACC-257 melanoma; HOP-92 NSCLC.
What all share (experiment): NCI anticancer screen, dose series, 48 h

With `Cc1cn(C2CC(N=[N+]=[N-])C(CO[Si](C)(C)C(C)(C)C)O2)c(=O)[nH]c1=O` (stereo unspecified), the TGI in the experiment on A549 NSCLC amounted to 87.8 µM; in the experiment with CAKI-1 renal, 37.1 µM; in the experiment with IGROV1 ovarian, 37.3 µM; in the experiment with KM12 colon, 32.5 µM; with NCI-H23 lung, 40.2 µM; in the experiment with OVCAR-3 ovarian it was 34.9 µM. The TGI in the experiment on OVCAR-8 ovarian is 37.1 µM; in the experiment with PC-3 prostate it was 38.9 µM; in the experiment with RPMI-8226 leukemia, 47.1 µM; with RXF 393 renal it was 32.3 µM; with SF-295 CNS it was 34.6 µM; in the experiment with SK-MEL-5 melanoma it was 32.4 µM. The TGI with SR leukemia was determined as 56.8 µM; in the experiment with UACC-257 melanoma it was 42 µM.

As to `CC(C)(C)OC(=O)NC(Cc1ccc([N+](=O)[O-])cc1)C(=O)NC(CCCCNC(=O)OCc1ccccc1)C(=O)ON1C(=O)CCC1=O` (stereo unspecified), the TGI with A549 NSCLC, with CAKI-1 renal, in the experiment on HOP-92 NSCLC, in the experiment with IGROV1 ovarian, in the experiment with KM12 colon and with NCI-H23 lung was over 100 µM in each case. In addition, the TGI in the experiment with OVCAR-3 ovarian, in the experiment on OVCAR-8 ovarian, in the experiment with PC-3 prostate, in the experiment with RPMI-8226 leukemia, in the experiment on RXF 393 renal and with SF-295 CNS was over 100 µM throughout. The TGI with SK-MEL-5 melanoma and with SR leukemia was over 100 µM in each case.

Turning to `CC1=C(C(=O)OC(C)C)C(c2ccccc2[N+](=O)[O-])C(C(=O)OC(CO[N+](=O)[O-])CO[N+](=O)[O-])=C(C)N1` (stereo unspecified), the TGI with A549 NSCLC is 12.9 µM; in the experiment on CAKI-1 renal, 19.3 µM; in the experiment with IGROV1 ovarian, 27.9 µM; with KM12 colon, 22.8 µM; in the experiment on NCI-H23 lung, 39.2 µM; in the experiment on OVCAR-3 ovarian it was 76.7 µM. Moreover, the TGI with OVCAR-8 ovarian is 22 µM; with PC-3 prostate, 12.2 µM; in the experiment with RPMI-8226 leukemia it was over 100 µM; with RXF 393 renal, 15.5 µM; in the experiment with SF-295 CNS, 6.95 µM; in the experiment with SK-MEL-5 melanoma, 4.78 µM. In addition, the TGI was over 100 µM in the experiment on SR leukemia and 15.7 µM in the experiment on UACC-257 melanoma.

For the molecule `CCOC(=O)C(C)NC(=O)C(C)NC(=O)C(C)NC(=O)C(C)NC(=O)C(C)NC(=O)C(C)NC(=O)C(C)NC(=O)OCc1ccccc1` (stereo unspecified) (Cbz-AAAAAAA-OEt; configuration not given here), the TGI with A549 NSCLC, in the experiment with CAKI-1 renal, in the experiment on HOP-92 NSCLC, with IGROV1 ovarian, with KM12 colon and in the experiment with NCI-H23 lung was over 100 µM throughout. In addition, the TGI with OVCAR-3 ovarian, in the experiment with OVCAR-8 ovarian, with PC-3 prostate, in the experiment with RPMI-8226 leukemia, with RXF 393 renal and with SF-295 CNS was over 100 µM each time. Moreover, the TGI in the experiment with SK-MEL-5 melanoma and with SR leukemia was over 100 µM in each case.

Turning to `CO[C@H]1O[C@@H]2CO[C@@H](c3ccccc3)O[C@H]2C[C@]12CCC/C=C\CO2`, the TGI with A549 NSCLC was over 75 µM; in the experiment on CAKI-1 renal it was over 75 µM; in the experiment with HOP-92 NSCLC it was 28.4 µM; in the experiment with KM12 colon it was over 75 µM; in the experiment with NCI-H23 lung, 68.1 µM; with OVCAR-3 ovarian it was 24.6 µM. Also, the TGI with OVCAR-8 ovarian is 25.2 µM; in the experiment with PC-3 prostate, 50.8 µM; with RXF 393 renal, 28.3 µM; in the experiment on SF-295 CNS it was over 75 µM; in the experiment on SK-MEL-5 melanoma, 44.1 µM; with SR leukemia, 31.8 µM. The TGI with UACC-257 melanoma was over 75 µM.

`CC(=O)OC[C@@]12C[C@H]3C(=O)C(C)(C)C[C@H]3[C@]1(C)[C@@H](OC(C)=O)[C@]1(O)[C@H]([C@@H](OC(=O)c3ccccc3)[C@@H](C)[C@H]1OC(C)=O)[C@H]2OC(C)=O`: the TGI in the experiment on CAKI-1 renal, with HOP-92 NSCLC, with IGROV1 ovarian, in the experiment on KM12 colon, in the experiment on NCI-H23 lung and in the experiment with OVCAR-3 ovarian was over 20 µM throughout. Also, the TGI with OVCAR-8 ovarian, with PC-3 prostate, with RXF 393 renal, with SF-295 CNS, with SK-MEL-5 melanoma and in the experiment on SR leukemia was over 20 µM in each case. The TGI with UACC-257 melanoma was over 20 µM.

`N#Cc1c(NC(=S)NCc2ccccc2)sc2c1CCN(N1CCc3c(sc(NC(=S)NCc4ccccc4)c3C#N)C1)C2`: the TGI with A549 NSCLC, in the experiment on CAKI-1 renal, with HOP-92 NSCLC, with IGROV1 ovarian, in the experiment on KM12 colon and in the experiment with NCI-H23 lung was over 100 µM each time. The TGI in the experiment on OVCAR-3 ovarian, in the experiment on OVCAR-8 ovarian, with PC-3 prostate, in the experiment on RXF 393 renal, with SF-295 CNS and with SK-MEL-5 melanoma was over 100 µM each time. The TGI in the experiment with SR leukemia and with UACC-257 melanoma was over 100 µM throughout.
